From ChEMBL document CHEMBL1201862, “PubChem BioAssay data set” (2004) come the findings set out here.

Among the test systems are UO-31; OVCAR-3; HOP-62; HCT-15; MOLT-4; K562; UACC-257; RXF 393; OVCAR-8; EKVX; HCT-116; TK-10; SK-MEL-28; NCI-H226; RPMI-8226; HOP-92.
Assay in all cases: NCI anticancer screen, dose series, 48 h

“And” between values parts separate entries of the source, which are not always exact repeats. Equal entries are not always repeated.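 Cells were grown in 96-well plates and exposed to each compound for 48 hours at five concentrations; endpoints were interpolated linearly between bracketing concentrations, or set to the highest concentration if not reached. The concentration for 50% growth inhibition is given as GI50.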 The source made the active and inactive calls. No stated cut-off is given here; in the data, active = GI50 up to about 1.1 µM and inactive = higher. A value given as a limit tells only on which side of the number the result lay.

Turning to `Cc1cc(C)c(C(=O)C(C)C(c2ccccc2)c2ccc(Cl)cc2)c(C)c1` (stereo unspecified), the GI50 in the assay with UO-31 is 50.8 µM (inactive); with OVCAR-3, > 100 µM (inactive); in the assay on HOP-62, > 100 µM (inactive); in the assay on HCT-15, > 100 µM and 51.5 µM; in the assay on MOLT-4, 65.9 µM (inactive) and 50.7 µM (inactive); in the assay on K562 it was 50.5 µM (inactive) and 48.8 µM (inactive). Moreover, the GI50 in the assay with UACC-257 was 44.2 µM (inactive) and 38.5 µM (inactive); in the assay on RXF 393, > 100 µM (inactive) and 77.6 µM (inactive); in the assay with OVCAR-8, > 100 µM (inactive); with EKVX, > 100 µM (inactive); in the assay with HCT-116, > 100 µM (inactive) and 56.1 µM (inactive); in the assay on TK-10 it was > 100 µM (inactive). Moreover, the GI50 in the assay with SK-MEL-28 and in the assay on NCI-H226 was > 100 µM (inactive) each time.
As for `CCN(CC)CCC(=O)N1CCc2c([nH]c3ccccc23)C1c1cccnc1` (stereo unspecified), the GI50 in the assay on UO-31 was > 100 µM (inactive); with OVCAR-3 it was > 100 µM (inactive); in the assay on HOP-62, > 100 µM (inactive); in the assay on HCT-15, more than 100 µM; in the assay on MOLT-4 it was > 100 µM (inactive); in the assay on RPMI-8226 it was > 100 µM (inactive). Besides, the GI50 in the assay with K562 is > 100 µM (inactive); with HOP-92 it was 68.9 µM (inactive); in the assay on UACC-257, > 100 µM (inactive); in the assay with OVCAR-8, > 100 µM (inactive); in the assay with EKVX, > 100 µM (inactive); in the assay with HCT-116, > 100 µM (inactive). Besides, the GI50 with TK-10 and in the assay on SK-MEL-28 was > 100 µM (inactive) each time.
In the case of `COc1ccc(C/C(=N/O)C(=O)NCCc2cc(Br)c(OCCCN(C)C)c(Br)c2)cc1Br` [APLYSAMINE 2], the GI50 is 23.1 µM (inactive) in the assay with UO-31; 21.6 µM (inactive) with OVCAR-3; 15.8 µM (inactive) with HOP-62; 16.1 µM (inactive) with UACC-257; 21.6 µM (inactive) in the assay with RXF 393; 21.9 µM (inactive) with OVCAR-8. Besides, the GI50 with EKVX is 19.6 µM (inactive); in the assay with HCT-116, 14.5 µM (inactive); in the assay on TK-10, 29.8 µM (inactive); with SK-MEL-28 it was 17.7 µM (inactive).
Consider `C=C1C(=O)OC2C1C(OC(=O)/C(=C/C)COC(C)=O)CC1(CO1)C1C(OC(=O)/C(=C/C)CO)C=C(C)C21` (stereo unspecified), for which the GI50 is 3.14 µM (inactive) in the assay on UO-31; 1.14 µM (inactive) in the assay with OVCAR-3; 1.59 µM in the assay on HCT-15; 0.378 µM (active) in the assay with MOLT-4; 0.655 µM (active) in the assay on RPMI-8226; 1.6 µM (inactive) with K562. Also, the GI50 is 2.04 µM (inactive) in the assay on UACC-257; 0.394 µM (active) in the assay with RXF 393; 0.564 µM (active) with OVCAR-8; 2 µM (inactive) in the assay on EKVX; 1.63 µM (inactive) with HCT-116; 2.3 µM (inactive) in the assay on TK-10. Further, the GI50 in the assay on SK-MEL-28 is 1.82 µM (inactive); in the assay with NCI-H226 it was 1.65 µM (inactive).
For `C[N+](C)(C)CC(=O)N/N=C(/C(=O)Nc1ccc(Br)cc1)C1C(=O)NC(=O)NC1=O`, the GI50 in the assay on UO-31 is > 100 µM (inactive); in the assay on OVCAR-3, > 100 µM (inactive); with HOP-62 it was > 100 µM (inactive); in the assay on HCT-15, more than 100 µM; with MOLT-4, > 100 µM (inactive); in the assay on RPMI-8226, > 100 µM (inactive). Also, the GI50 with K562, in the assay on UACC-257, in the assay with RXF 393, in the assay on EKVX, in the assay on HCT-116 and in the assay on TK-10 was > 100 µM (inactive) in each case. Also, the GI50 in the assay on SK-MEL-28 and in the assay on NCI-H226 was > 100 µM (inactive) in each case.
Consider `CC(C)C(=O)/C=C/c1ccc(Cl)c(Cl)c1`, for which the GI50 was 14.2 µM (inactive) with UO-31; 14.5 µM (inactive) in the assay on OVCAR-3; 24.4 µM (inactive) in the assay with MOLT-4; 13.8 µM (inactive) in the assay with RPMI-8226; 6.18 µM (inactive) in the assay on K562; 17.4 µM (inactive) with HOP-92. For the same compound, the GI50 in the assay on UACC-257 was 21.5 µM (inactive); in the assay on RXF 393, 16.7 µM (inactive); in the assay with OVCAR-8 it was 18.9 µM (inactive); in the assay on EKVX, 23.4 µM (inactive); with HCT-116 it was 3.69 µM (inactive); in the assay with TK-10, 14.2 µM (inactive). Further, in the assay with SK-MEL-28, the GI50 was 18.7 µM (inactive).
Turning to `COc1c(Cl)c(Cl)c(OC)c2c1C(=O)C=CC2=O`, the GI50 was 17.8 µM (inactive) in the assay on UO-31; 17.3 µM (inactive) in the assay with OVCAR-3; 35.6 µM in the assay on HCT-15; 2.9 µM (inactive) in the assay on MOLT-4; 18.2 µM (inactive) in the assay on RPMI-8226; 7.85 µM (inactive) in the assay on K562. In addition, the GI50 with HOP-92 was 15.3 µM (inactive); with UACC-257, 18.1 µM (inactive); in the assay on RXF 393 it was 17.1 µM (inactive); with OVCAR-8, 17.1 µM (inactive); in the assay on EKVX, 17.4 µM (inactive); in the assay on HCT-116, 17.8 µM (inactive). For the same compound, the GI50 is 20.2 µM (inactive) in the assay on TK-10, 17.7 µM (inactive) with SK-MEL-28 and 33.5 µM (inactive) in the assay with NCI-H226.
Consider `Cc1c2cc[n+](C)cc2c(C)c2c1[nH]c1ccc(O)c(OCC(F)(F)F)c12`, for which the GI50 in the assay on UO-31 is 7.06 µM (inactive); in the assay with OVCAR-3, 0.895 µM (active); in the assay with HOP-62 it was 1.12 µM (inactive); in the assay with MOLT-4, 2.42 µM (inactive); in the assay on RPMI-8226, 2.22 µM (inactive); in the assay with K562, 2.39 µM (inactive). Further, the GI50 is 4.91 µM (inactive) in the assay with HOP-92; 6.31 µM (inactive) with UACC-257; 1.85 µM (inactive) in the assay with OVCAR-8; 2.68 µM (inactive) with EKVX; 4.97 µM (inactive) with HCT-116; 11.2 µM (inactive) in the assay with TK-10. The GI50 was 5.65 µM (inactive) in the assay with SK-MEL-28 and 0.432 µM (active) in the assay on NCI-H226.
Consider `CC(SC(=S)N1CCOCC1)c1cc2oc(=O)n(C)c2cc1Cl` (stereo unspecified), for which the GI50 is > 100 µM (inactive) with UO-31; > 100 µM (inactive) with OVCAR-3; > 100 µM (inactive) in the assay on HOP-62; more than 100 µM with HCT-15; 56.1 µM (inactive) in the assay with MOLT-4; 58.2 µM (inactive) in the assay with RPMI-8226. Besides, the GI50 was 33.3 µM (inactive) in the assay on K562; > 10 µM (inactive) in the assay on HOP-92; 74.5 µM (inactive) in the assay on UACC-257; > 100 µM (inactive) in the assay on RXF 393; > 100 µM (inactive) in the assay on OVCAR-8; > 100 µM (inactive) in the assay on EKVX. Besides, the GI50 in the assay on HCT-116, in the assay on TK-10 and in the assay on SK-MEL-28 was > 100 µM (inactive) throughout.
Take `CCOC(=O)c1ccc(/N=C/c2ccc(N(CCC#N)S(=O)(=O)c3ccccc3)cc2C)cc1`: the GI50 was 28.3 µM (inactive) with UO-31; 54.7 µM (inactive) in the assay with OVCAR-3; 31 µM (inactive) in the assay on HOP-62; 6.82 µM with HCT-15; 28.6 µM (inactive) with MOLT-4; 36.2 µM (inactive) in the assay with RPMI-8226. The GI50 with K562 is 9.79 µM (inactive); in the assay with UACC-257, 50 µM (inactive); in the assay with OVCAR-8, > 100 µM (inactive); in the assay with EKVX it was 52.8 µM (inactive); with HCT-116, 36.9 µM (inactive); with TK-10 it was 49.3 µM (inactive). In addition, the GI50 in the assay on SK-MEL-28 was 61.2 µM (inactive).
